Results on two molecules are retold here after patent US9266900B2, “Additives for improved isohexide products” (ARCHER DANIELS MIDLAND COMPANY, priority 2012, dated 2016).

The nature of series [1]: Isosorbide (100% molten) mixed with additives, heated 1-2 hours at 200 degrees Celsius, accelerated aging tests. To be noted: additive screening.
Series [2] in a line: Distillation of crude isosorbide mixture with added antioxidant: co-distillation and initial distillate color. The class given is physicochemical. The procedure: A 500 mL boiling flask equipped with a Teflon stir bar was charged with 100 g of ion-exchanged (strong acid cation/strong base anion-exchanged), dewatered, molten isosorbide. While stirring, 40.02 mg of 2,6-di-tert-butyl-4-methoxyphenol (DTMP), previously dissolved in 2 mL of absolute ethanol, was added via pipette, indicating the DTMP concentration as 400 ppm in the matrix. The flask was then outfitted with a still head, condenser, and receiver, placed under a vacuum of <2 torr, and placed in a digitally controlled oil bath. The bath was gradually heated to 190 degrees Celsius while maintaining a vacuum. At a bath temperature of approximately 155 degrees, isosorbide began to distill (vapor temperature of 150 deg C.). Continuous distillation occurred for approximately 30 minutes. 45.6 grams of clear, colorless isosorbide was collected, whose APHA color was measured as 6. Quantitative analysis by UPLC determined the concentration of DTMP in the distilled isosorbide to be 503 ppm.
In this as in subsequent examples, a quantity of an antioxidant under evaluation was dissolved in 1-2 mL of absolute ethanol and then added via pipette to a crude isosorbide mixture which had been treated previously to remove ionic species therefrom. Amounts were set so that the concentration of the antioxidant in the crude isosorbide mixture was in the range of from 250 to 900 ppm by weight. The stabilized crude isosorbide mixtures were then distilled in turn in a short path, jacketed distillation apparatus consisting of a 250 cc 3 neck boiling flask containing a PTFE magnetic stir bar in which one neck was fitted with a rubber septum, a thermocouple extended into the mixture being distilled from a central neck, and the third neck was equipped with the short path head leading to a boiling flask receiver maintained at 80 degrees Celsius. The boiling flask was immersed in an oil bath maintained at from 185 to 195 degrees Celsius, and distillation occurred under a vacuum pressure of less than 2 torr.

The nature of series [3]: Heating of isosorbide distillate in 200° C. oil bath for 1 hr under air, APHA color by UV/vis. The class given is physicochemical. To be noted: 0.5 g diluted with 2 mL water. The procedure:
About, an 11 gram sample of the isosorbide distillate was added to a glass tube and capped with a septum. The glass tube was then submerged in a 200° C. oil bath for 1 hr under air. Approximately 0.5 g of the heated distillate sample was subsequently diluted with 2 mL of water and analyzed by UV/vis to obtain an APHA color value. An APHA color of approximately 250 was observed, compared to an APHA value for a distillate sample absent the DTMP additive that was offscale (>500).
About an 11 gram sample of the isosorbide distillate was added to a glass tube and capped with a septum. The glass tube was then submerged in a 200° C. oil bath for 1 hr under air.

A short description of series [4]: Thermal aging of neat distillate in 85 deg C. oven under air up to 28 days. The class given is physicochemical. The procedure: The DTMP-stabilized distillate was further tested for color storage stability by thermal aging over a more extended period of time, in particular, by preparing typically five 10 mL headspace vials of each of the neat distillate and an 85% solution of the distillate in water in 0.5 gram sample portions. One vial of the set of five for the neat distillate or the 85% solution was set aside as the “time zero” data point. The time zero sample was diluted with 2 mL of water and analyzed.
For the neat distillate, the APHA color of the time zero sample was less than 20 by UV/vis. All other decomposition products were less than 5 ppm. The four other vials of the neat distillate were then placed in an 85 deg C. oven trader air, and one vial was removed at 7 days, another at 14 days, another at 21 days, and the last of the four at 28 days. Once removed from the oven, each sample was allowed to cool to room temperature and diluted with 2 mL of water. The sample was then analyzed by UV/vis, UPLC, LC-MS, and GC. After 28 days, APHA color, measured as a 20% solution, was only 28. Furfural and formic acid were measured at 18 ppm and 39 ppm, respectively.
The BBTC-stabilized distillate was further tested for color storage stability by thermal aging over a more extended period of time, in particular, by preparing typically five 10 mL headspace vials of each of the neat distillate and an 85% solution of the distillate in water in 0.5 gram sample portions. One vial of the set of five for the neat distillate or the 85% solution was set aside as the “time zero” data point. The time zero sample was diluted with 2 mL of water and analyzed.
For the neat distillate, the APHA color of the time zero sample was less than 1 by UV/vis. Formic acid concentration in the time zero sample was less than 5 ppm, while furfural concentration was less than 1 ppm. The four other vials of the neat distillate were then placed in an 85 deg C. oven under air, and one vial was removed at 7 days, another at 14 days, another at 21 days, and the last of the four at 28 days. Once removed from the oven, each sample was allowed to cool to room temperature and diluted with 2 mL of water. Each sample was then analyzed by UV/vis, UPLC, LC-MS, and GC. After 28 days, APHA color, measured as a 20% solution, was 191. Furfural and formic acid were measured at 298 ppm and 6,102 ppm, respectively.

The nature of series [5]: Thermal aging of 85% solution of the distillate in water at 85 deg C. up to 28 days. To be noted: 85% solution. The class given is physicochemical.
The nature of series [6]: Solubility and retention of stabilizer in isosorbide product. To be noted: 85% solution isosorbide product.

`C1OC1COC1COC2C(OCC3CO3)COC12` (stereo not drawn) [isosorbide diglycidol ether]: the “effect on color stability of isosorbide” value in series [1] is given as “ineffective in the absence of an antioxidant”.

For `COc1cc(C)cc(OC)c1O` [DMMP, 2,6-dimethoxy-4-methylphenol], in series [2] (co-distilled with isosorbide), the “antioxidant recovered in the distillate, yield” value came out at 84%. Also, the “initial APHA color of the neat distillate” value in series [2] (neat distillate after distillation, ASTM D1209) was found to be 13. Moreover, in series [2] (short path distillation, oil bath 185 to 195 degrees Celsius, less than 2 torr), the “additive distilled with the isosorbide / recovered in the distillate by UPLC analysis” value is recorded as “About 84%”. The “APHA color after heating” value in series [3] came to 205. The “color stability criteria after accelerated aging” value in series [4] (85 degrees Celsius, 4 weeks, APHA less than 200 neat distillate and less than 250 for 85% solution) is reported as “criteria were met”. In addition, the “formic acid after 28 days” value in series [4] (neat distillate, 85 deg C., 28 days) is reported as 74 ppm. In addition, the “APHA color after 28 days” value in series [4] (neat distillate, 85 deg C., air, 28 days, measured as a 20% solution) was found to be 17. The “formic acid concentration, time zero” value in series [4] (neat distillate, time zero) is reported as “less than 5 ppm”. Moreover, the “APHA color, time zero” value in series [4] (neat distillate, time zero, UV/vis) is on record as “less than 15”; in series [5] (time zero, diluted (20%)), 5. Also, the “formic acid concentration, final sample” value in series [5] (85 deg C., 28 days) came to 63 ppm. Further, the “APHA color, day 28” value in series [5] (85 deg C., day 28, final diluted (20%)) is 50. Moreover, in series [5] (initial), the “formic acid concentration, initially” value was “less than 5 ppm”. Also, the “solubility in 85% solution product” value in series [6] is reported as “continued good solubility”.
